Tests used:
σ1-receptor [1] = target: T1, σ1-receptor (Cavia porcellus, UniProt Q60492); assay: Sigma-1 (Version A) radioligand binding, [3H](+)-pentazocine, guinea pig brain membranes
Method: Brain membrane preparation and binding assays for the σ1-receptor were performed as described (DeHaven-Hudkins et al., 1992) with some modifications. In brief, guinea pig brains were homogenized in 10 vols. […] The homogenate was centrifuged at 1000 g for 10 min at 4° C. and the supernatants collected and centrifuged again at 48000 g for 15 min at 4° C.
Each assay tube contained 10 μL of [^3H](+)-pentazocine (final concentration of 0.5 nM), 900 μL of the tissue suspension to a final assay volume of 1 mL and a final tissue concentration of approximately 30 mg tissue net weight/mL. […] All tubes were incubated at 37° C. for 150 min before termination of the reaction by rapid filtration over Schleicher & Schuell GF 3362 glass fibre filters [previously soaked in a solution of 0.5% polyethylenimine for at least 1 h]. […] Following addition of scintillation cocktail, the samples were allowed to equilibrate overnight. The amount of bound radioactivity was determined by liquid scintillation spectrometry using a Wallac Winspectral 1414 liquid scintillation counter.

σ1-receptor [2] = target: T1, σ1-receptor; assay: Sigma 1 (Version B) radioligand binding, [3H]-(+)-pentazocine, guinea pig brain preparation; parameters: the σ1-receptor preparation was prepared from guinea pig brain; from tissue; host or cells: guinea pig brain membrane homogenate
Method: In brief the σ1-receptor preparation was prepared from guinea pig brain. The brains were homogenized in 5 to 6 times of volume sucrose solution (0.32M) and homogenized. The homogenate was centrifuged at 2900 rpm, 4° C., 10 min). the supernatant was centrifuged again (23500×g, 4° C., 20 min). The pellet was resuspended in Tris-buffer, incubated for 30 min at room temperature and centrifuged f (23500×g, 4° C., 20 min). The pellet was resuspended in cold TRIS-buffer and homogenized. Then the protein content was measured (approx. 1.5 mg/mL) and the homogenate frozen at −80° C. for later use.
The radioligand used was […]-(+)-Pentazocin in TRIS-buffer. In a volume of 200 μL 50 μL TRIS-buffer, 50 μL compound solution of varying concentration, 50 μL radioligand-solution (8 nM; resulting in 2 nM in the assay) and finally 50 μL of receptor preparation (approx. 1.5 mg/mL) were given into a well of a microplate equipped with a filter. The plate was closed and stirred for 2.5 h at 37° C. and 500 rpm. Following that the solvents were removed by a harvester through the filter. After rinsing with H2O the filter was measured in a scintillation counter ([^3H]-protocol).

σ2-receptor = target: T2, σ2-receptor (Rattus norvegicus, UniProt Q5U3Y7); assay: Sigma 2 (Version B) radioligand binding, [3H]-ditolylguanidine, rat liver preparation, σ1 sites masked with (+)-pentazocine; details: for Ki: [3H]-ditolylguanidine 3 nM
T2 construct: the σ2-Receptorpreparation was prepared from rat liver; from tissue; host or cells: rat liver membrane homogenate
T2 sequence (Q5U3Y7 1-176): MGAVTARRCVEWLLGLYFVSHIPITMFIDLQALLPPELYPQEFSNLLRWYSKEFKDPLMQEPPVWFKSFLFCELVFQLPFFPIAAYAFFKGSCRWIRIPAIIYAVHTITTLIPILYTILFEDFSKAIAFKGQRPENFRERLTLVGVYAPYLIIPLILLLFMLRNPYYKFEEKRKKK
Method: In brief the σ2-Receptorpreparation was prepared from rat liver. The livers were homogenized in 5 to 6 times of volume sucrose solution (0.32M) and homogenized. The homogenate was centrifuged at 2900 rpm, 4° C., 10 min). the supernatant was centrifuged again (31000×g, 4° C., 20 min). The pellet was resuspended in TRIS-buffer, incubated for 30 min at room temperature while stirring and centrifuged f (31000×g, 4° C., 20 min). The pellet was resuspended in cold TRIS-buffer pH 8 and homogenized. Then the protein content was measured (approx. 2 mg/mL) and the homogenate frozen at −80° C. for later use.
The radioligand used was [^3H]-Ditolylguanidin in TRIS-buffer pH 8. The σ1-receptor binding sites were masked through (+)-Pentazocin-solution in TRIS-Puffer pH 8.
In a volume of 200 μL 50 μL compound solution of varying concentration, 50 μL (+)-Pentazocin-solution (2 μM; resulting in 500 nM in the assay), 50 μL radioligand-solution (12 nM; resulting in 3 nM in the assay) and finally 50 μL of receptor preparation (approx. 2 mg/mL) were given into a well of a microplate equipped with a filter. The plate was closed and stirred for 2 h at room temperature and 500 rpm. Following that the solvents were removed by a harvester through the filter. After rinsing with H2O the filter was measured in a scintillation counter ([^3H]-protocol).

T1 sequence (Q60492 whole entry): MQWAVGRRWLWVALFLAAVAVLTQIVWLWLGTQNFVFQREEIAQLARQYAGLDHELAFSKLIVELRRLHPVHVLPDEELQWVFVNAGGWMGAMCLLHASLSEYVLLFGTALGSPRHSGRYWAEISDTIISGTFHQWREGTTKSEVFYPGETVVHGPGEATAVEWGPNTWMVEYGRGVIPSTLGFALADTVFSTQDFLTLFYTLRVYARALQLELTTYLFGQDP

| SMILES | Ki (σ1-receptor [1]) [nM] | Ki (σ1-receptor [2]) [nM] | Ki (σ2-receptor) [nM] | inhibition at 1 µM (σ2-receptor; compound at 1 μM) [%] |
| --- | --- | --- | --- | --- |
| COC1Cc2c(cnn2-c2ccccc2)C2(CCN(CCC(C)C)CC2)O1 (stereo not drawn) [Example 12, 1-Isopentyl-6′-methoxy-1′-phenyl-6′,7′-dihydro-1′H-spiro[piperidin-4,4′-pyrano[4,3-c]pyrazole]] | 2.5 | 0.97 | 316 |  |
| COC1Cc2c(cnn2-c2ccccc2)C2(CCN(CC=C(C)C)CC2)O1 (stereo not drawn) [Example 13, 6′-Methoxy-1-(3-methylbut-2-en-1-yl)-1′-phenyl-6′,7′-dihydro-1′H-spiro[piperidin-4,4′ pyrano[4,3-c]pyrazole]] | 7.3 | 1.64 |  | 3 |
| CCCCCCCCN1CCC2(CC1)OC(OC)Cc1c2cnn1-c1ccccc1 (stereo not drawn) [Example 14, 6′-Methoxy-1-octyl-1′-phenyl-6′,7′-dihydro-1′H-spiro[piperidin-4,4′-pyrano[4,3-c]pyrazole]] | 41 | 2.86 | 209 |  |
| COC1Cc2c(cnn2-c2ccccc2)C2(CCN(CC3CCCCC3)CC2)O1 (stereo not drawn) [Example 15, 1-(Cyclohexan-1-ylmethyl)-6′-methoxy-1′-phenyl-6′,7′-dihydro-1′H-spiro[piperidin-4,4′-pyrano[4,3-c]pyrazole]] | 7.9 | 0.55 | 109 |  |
| COC1Cc2c(cnn2-c2ccccc2)C2(CCN(CCCCc3ccccc3)CC2)O1 (stereo not drawn) [Example 18, 6′-Methoxy-1′-phenyl-1-(4-phenylbutyl)-6′,7′-dihydro-1′H-spiro[piperidin-4,4′-pyrano[4,3-c]pyrazole]] | 15.7 | 3.22 | 428 |  |
| COC1Cc2c(cnn2-c2ccccc2)C2(CCN(Cc3ccco3)CC2)O1 (stereo not drawn) [Example 19, 1-(Furan-2-ylmethyl)-6′-methoxy-1′-phenyl-6′,7′-dihydro-1′H-spiro[piperidin-4,4′-pyrano[4,3-c]pyrazole]] | 3.8 | 2.21 | 5220 |  |
| COC1Cc2c(cnn2-c2ccccc2)C2(CCN(Cc3ccc(F)cc3)CC2)O1 (stereo not drawn) [Example 21, 1-(4-Fluorbenzyl)-6′-methoxy-1′-phenyl-6′,7′-dihydro-1′H-spiro[piperidin-4,4′-pyrano[4,3-c]pyrazole]] | 7.7 | 0.94 | 687 |  |

— US20100197714A1, “SPIRO-PYRANO-PYRAZOLE DERIVATIVES” (priority 2007, published 2010)
